Data on 1 substance can be found in patent EP4610270A1, “NOVEL ANTIMICROBIAL PEPTIDE AND PHARMACEUTICAL COMPOSITION THEREOF” (Qingdao Sensheng Biopharmaceutical Technology Co., Ltd, priority 2022, dated 2024).

For data set [1], the system named is Escherichia coli 25922 (ATCC 25922, E. coli 25922). Kind of data set: Antimicrobial activity by liquid antimicrobial / turbidimetric method (OD540, microplate reader). The format is cell-based. The following applies: E. coli drug sensitive strain; FIG. 1. On the procedure: (§1) The materials of Gram negative bacteria and Gram positive bacteria used in the embodiments of the present disclosure include Gram negative bacteria Escherichia coli strain Escherichia coli 25922 (ATCC 25922, E. coli 25922) and Gram positive bacteria Staphylococcus aureus strain Staphylococcus aureus 25923 (ATCC 25923, S. aureus 25923). […] 100 µl of the sample was immediately taken and placed in a microplate reader to measure its OD540, which was recorded as OD 0h. Then the sample was placed in a 37°C constant temperature incubator for cultivation, 100 µl of the sample was taken every 1 h, and the OD540 of each centrifuge tube was measured. Based on the changes in absorbance, the growth of bacteria could be determined, and the antimicrobial activity and minimum inhibitory concentration (MIC) of the polypeptide could be determined. […] 100 µl of the sample was immediately taken and placed in a microplate reader to measure its OD540, which was record as OD 0h. Then the sample was placed in a 37°C constant temperature incubator for cultivation, 100 µl of the sample was taken every 1 h, and the OD540 of each centrifuge tube was measured once.

The test system of data set [2] is Staphylococcus aureus 25923 (ATCC 25923, S. aureus 25923). The description is as above. The following applies: S. aureus drug sensitive strain; FIG. 2. The class given is cell-based. The protocol:
as §1

The subject of data set [3] is Human red blood cells (RBC). The format is cell-based. On the procedure:
Human red blood cells (RBC) were used to detect the hemolytic activity of Ac-SH-17. All subjects provided written informed consent. The obtained healthy human blood was placed in an EDTA anticoagulant tube. Red blood cells were collected by centrifugation and suspended in PBS to a concentration of 4% (v/v). An equal portion of 200 µl red blood cell suspension was mixed with 200 µl of Ac-SH-17 solution at different concentrations (12.5, 25, 50, 100, and 200 µg/ml). After incubation at 37°C, the mixture was centrifuged […], and the supernatant was collected and added to a 96-well plate. Red blood cells incubated with PBS, BSA solution (100 µg/ml), or 0.1% Triton X-100 solution were used as blank control, negative control, and positive control, respectively. The absorbance was measured at 540 nm using a microplate reader. Three parallel samples were set up for each experiment, and the experiment was repeated at least three times. The results were analyzed for significant differences by a two-way ANOVA method, with p<0.05 indicating significant differences. Table 3.1 Hemolysis analysis

Data set [4] concerns RAW264.7 mouse macrophage cell line. Kind of data set: Anti-inflammatory experiment: NO release after LPS stimulation (Griess). The format is cell-based. The following applies: antimicrobial peptide 80 µM; 1 µg/ml LPS stimulation; FIG. 4. The source says:
NO is a diffusible and membrane permeable small molecule obtained during the oxidation of L-arginine by NOS. NO was associated with many physiological reactions in organisms. […] But at low concentrations, NO could act as a signal to positively and negatively regulate innate and acquired immunity. Thus, by detecting the concentration of NO released by cells, the inflammatory response of cells could be detected.
The RAW264.7 mouse macrophage cell line was used as the experimental material and cultured in a DMEM high glucose medium containing FBS (10%) and penicillin-streptomycin dual antibody (100 U/ml). The RAW264.7 mouse macrophage cell line was used for experiments when the cell state was stable, the shape was full, and the edges were transparent.
• 1. The culture medium was removed from the cells and gently purged twice with PBS at room temperature to remove excess culture medium. After digestion with 0.25% trypsin for 3 min, the culture bottle was gently tapped to induce cell detachment, and then the culture medium was added to terminate digestion. The culture bottle was repeatedly blown and beaten to make the cells uniform. • 2. […]
4.2 In this experiment, NO was detected by the method provided in the total nitric oxide content determination kit, and improvements were made. […]

The nature of data set [5]: Antisepsis experiment: survival in fecal homogenate sepsis model. The following applies: intraperitoneal 0.5 ml of 80 µM; within 24 h; compared to the model group; FIG. 5. The class given is in vivo, SD rats. The protocol: Sepsis refers to a systemic inflammatory response syndrome caused by infectious factors. A rat model of intestinal sepsis was established by injecting rat fecal homogenate into the abdominal cavity of model rats, followed by intraperitoneal injection of antimicrobial peptides to observe the survival rate of mice within 10-48 h, in order to evaluate the therapeutic effect of antimicrobial peptides on sepsis in mice.
60 SD rats were randomly divided into 6 groups by a random number table method, i.e., model group 1, model group 2, model group 3, model group 4, model group 5, and blank group, with 10 rats in each group. These 6 groups of rats were weighed and numbered in sequence.
After 1 week of adaptive feeding, fresh formed feces were collected from these 60 SD rats. After weighing the rat feces, an appropriate amount of physiological saline was added to it, and then the mixture was placed in a homogenizer for thorough grinding to prepare a rat feces homogenate at the concentration of 10%. The rat fecal homogenate was centrifuged at 3000 rpm for 5 min to obtain the supernatant, and then a syringe was used to suck out an appropriate amount of the supernatant for later use.
Before modeling, rats in model groups 1-5 were fasted for 12 hours, and then a 10% concentration of rat feces homogenate supernatant was injected intraperitoneally at a dose of 1 ml/200 g. […]

Turning to “Ac-SRMKKWAKIIEKWRKWH-NH2 [Ac-SH-17, Ac-SRMKKWAKIIEKWRKWH-NH2]”, the antimicrobial activity result in data set [1] was “exhibited antimicrobial activity”. For the same substance, in data set [2], the antimicrobial activity entry is recorded as “exhibited antimicrobial activity”. Moreover, in data set [3], the “OD Value” was found to be 0.061±0.013 and the hemolytic effect result is “does not have significant hemolytic effect”. In data set [3] (red cells of human), the “Hemolysis Ratio (%)” value was 4.40%. Also, in data set [4], the “inhibition of the release of NO” value is listed as “significantly inhibited the release of NO” and the “release concentration of NO” value is “substantially the same as that of the blank control”. The survival rate entry in data set [5] is reported as “significantly improved the survival rate”.
